From US8592419B2, “Ceramides and apoptosis-signaling ligand” (MUSC Foundation for Research Development, priority 2004, dated 2013)

Assays:
cytochrome c = test: Cytochrome c release into the cytosol (Western blot); format: cell-based, human; details: 5 or 10 μM, DU145 cells
Description: Immunoblot analysis. Cells were seeded in 60mm plates as described above and treated accordingly. Cells were lifted by gently scraping the plates, washed once with ice cold PBS and then lysed in lysis buffer (PBS, 1% Triton X-100, 10% glycerol) containing protease inhibitors pepstatin A (0.5 μg/ml), leupeptin (0.5 μg/ml), aprotinin (5 μg/ml), and PMSF (100 μg/ml) for 10 minutes on ice. Insoluble material was removed by centrifugation at 14,000 rpm for 15 minutes at 4° C. The supernatants were then supplemented with SDS at a final concentration of 2% and stored at −80° C. Protein concentrations were determined using the DC Protein Assay (BioRad Laboratories; Hercules, CA, USA) according to the manufacturer's instructions. 50 μg of protein per sample (unless otherwise indicated) were separated on NuPAGE 4-12% Bis-Tris gels (Invitrogen; Carlsbad, CA, USA) and transferred to nitrocellulose membranes (BioRad). […]
Subcellular fractionation. […] Enzyme activity per 50 μg lysate was measured using the fluorogenic cathepsin B substrate 111 (Calbiochem) according to the manufacturer's protocol.

ASMase = biological target: T1, ASMase (Homo sapiens, UniProt P17405); test: Acid sphingomyelinase activity assay; format: cell-based; details: DU145 cells, 10 μM
T1 construct: DU145 cells were lysed in 50 mM Tris (pH=7.4) using a probe sonicator; endogenous in cells; host or cells: DU145 (lysate of treated cells)
Description: Acid Sphingomyelinase Activity Assay. DU145 cells were lysed in 50 mM Tris (pH=7.4) using a probe sonicator. Cellular debris was removed after centrifugation at 3000×g for 10 minutes. Proteins (50 μg) were adjusted to a total volume of 100 μl and the reaction was started by adding 100 μl of the reaction mixture containing 1 mM EDTA, 250 mM sodium acetate (pH 5.0), 100 μM [choline-methyl-^14C] sphingomyelin and 0.1% Triton X. After incubation at 37° C. for one hour, the reaction was stopped by adding 1.5 ml of chloroform/methanol (2:1) and then 200 μl of water. Phases were separated by centrifugation at 2000×g for 5 minutes. Quantitation of the amount of released radioactive phosphocholine was determined by subjecting 400 μl of the upper phase to scintillation counting.

lysosomes of DU145 cells = test: Lysosomal stability assay (LysoTracker Red); format: cell-based, human
Description: Lysosoinal stability assay. Lysosomal stability was measured using the fluorescent dye LysoTracker Red (LTR). Cells were seeded overnight in 60 mm plates. The next day, medium was removed and replaced with medium containing 200 nM LTR. Cells were loaded with LTR for 30 minutes at 37° C. LTR was removed and cells were washed once with PBS, then medium containing the treatment was added for the indicated time. After treatment, cells were lifted with trypsin, washed once in PBS, and resuspended in 0.5 mL growth medium. LTR fluorescence was measured using FACS analysis (564-606 nm) as above. A decrease in fluorescence intensity corresponded to an increase in lysosomal pH, and a minimum of 10,000 events were scored for each sample.

PUMA = test: Immunoblot of PUMA; format: cell-based, human; details: for PUMA up-regulation: 10 μM
Description: Immunoblot analysis. Cells were seeded in 60mm plates as described above and treated accordingly. Cells were lifted by gently scraping the plates, washed once with ice cold PBS and then lysed in lysis buffer (PBS, 1% Triton X-100, 10% glycerol) containing protease inhibitors pepstatin A (0.5 μg/ml), leupeptin (0.5 μg/ml), aprotinin (5 μg/ml), and PMSF (100 μg/ml) for 10 minutes on ice. Insoluble material was removed by centrifugation at 14,000 rpm for 15 minutes at 4° C. The supernatants were then supplemented with SDS at a final concentration of 2% and stored at −80° C. Protein concentrations were determined using the DC Protein Assay (BioRad Laboratories; Hercules, CA, USA) according to the manufacturer's instructions. 50 μg of protein per sample (unless otherwise indicated) were separated on NuPAGE 4-12% Bis-Tris gels (Invitrogen; Carlsbad, CA, USA) and transferred to nitrocellulose membranes (BioRad). Following transfer, membranes were blocked for 1 hour at room temperature in Tris-buffered saline (TBS) containing 0.1% Tween-20 and 5% nonfat dry milk and incubated overnight at 4° C. with primary antibody at a dilution of 1:2,000(actin), 1:1,000(cytochrome c, COX IV, Bax, Bak, p53, p38, P-p38), 1:500(P-JNK, JNK), 1:250 (AC, p73), or 1:400(LAMP-1, cathepsin B). Overnight incubations were performed in 5% milk in TBS-Tween. Following overnight incubation, membranes were washed three times for 10 minutes each in TBS-Tween and incubated for 1 hour at room temperature with secondary antibody in 5% milk TBS-Tween at a dilution 1:5,000 (goat anti-mouse IgG) or 1:50,000 (goat anti-rabbit). Membranes were then washed three times more and incubated for 5 minutes at room temperature with Super Signal HRP substrate (Pierce Biotechnology Inc.; Rockford, IL, USA).

DU145 xenografts = test: DU145 prostate cancer xenografts in nude mice
Description: One of the problems with cancer gene therapy as it is currently practiced is the issue of delivery of gene therapy vectors to every tumor cell in order to effect death of the tumor. […] The inventors devised a model of molecular cell killing in a solid tumor in which only perhaps up to 30% of the cells are infected by the virus. Since the ceramide analogs of the invention are acid CDase inhibitors which sensitize the cells to this type of cell death, an in vivo experiment in which prostate cancer xenografts, in this case DU145 cells, were grown in nude mice and treated sequentially with the acid Cdase inhibitor LCL204 followed by the AdGFPFasL virus. […] The LCL204 was administered at 0, 72 and 144 hours and the virus (1×10^9 pfu) at 10 and 82 hours.

T1 sequence (P17405 47-631): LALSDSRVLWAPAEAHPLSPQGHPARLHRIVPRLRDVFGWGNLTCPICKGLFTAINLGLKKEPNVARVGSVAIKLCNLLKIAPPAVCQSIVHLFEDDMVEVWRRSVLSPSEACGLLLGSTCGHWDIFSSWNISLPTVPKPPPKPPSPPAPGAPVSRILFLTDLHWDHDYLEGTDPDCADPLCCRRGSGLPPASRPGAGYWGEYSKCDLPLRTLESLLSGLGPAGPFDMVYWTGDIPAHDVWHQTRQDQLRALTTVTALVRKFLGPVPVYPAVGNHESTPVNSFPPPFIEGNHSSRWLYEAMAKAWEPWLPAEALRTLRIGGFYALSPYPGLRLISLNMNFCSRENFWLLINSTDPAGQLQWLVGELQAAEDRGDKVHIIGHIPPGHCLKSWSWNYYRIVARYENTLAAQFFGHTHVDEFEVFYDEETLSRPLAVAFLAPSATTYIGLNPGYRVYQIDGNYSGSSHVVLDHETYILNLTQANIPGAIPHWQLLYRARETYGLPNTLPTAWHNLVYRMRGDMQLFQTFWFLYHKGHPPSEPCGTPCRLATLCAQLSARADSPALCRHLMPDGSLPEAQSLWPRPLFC

## CCCCCCCCCCCCCCN[C@H](CO)[C@H](O)c1ccc([N+](=O)[O-])cc1.Cl [LCL204, (1R,2R) D-threo-2-N-Tetradecylamino-1-(4′-nitrophenyl)-1,3-propandiol hydrochloride]
Cytochrome c
  time by which cytochrome c release into the cytosol was detected: ≤ 4 h
ASMase
  earliest decrease in ASMase activity: 30 min
Lysosomes of DU145 cells; DU145 cells, 10 μM
  onset of the effect on lysosomal pH: as early as five minutes
Lysosomes of DU145 cells; DU145 cells, 1 hour, LCL204 10 μM, C6-ceramide 30 μM, B13 20 μM
  shift in LTR fluorescence (rise in lysosomal pH): induced the shift in LTR fluorescence
Lysosomes of DU145 cells; DU145 cells, one hour
  lysosome destabilization versus concentration: destabilized lysosomes in a concentration-dependent manner
Lysosomes of DU145 cells; prostate cancer cells
  earliest destabilization of the lysosomes: 5 min
PUMA; DU145 cells
  PUMA up-regulation: up-regulated in DU145 cells after eight hours
PUMA; PC-3 cells
  PUMA up-regulation: earlier (four hours) in PC-3 cells
PUMA; PPC-1/pcDNA3 control cells, 7.5 μM
  time of PUMA induction: 90 min
DU145 xenografts; LCL204 at 0, 72 and 144 hours followed by virus at 10 and 82 hours
  tumor burden, combination of LCL204 and AdGFPFasL virus: effectively reduce the tumor burden
DU145 xenografts; LCL204 systemically at 0, 72 and 144 hours, virus 1×10^9 pfu at 10 and 82 hours
  tumor growth, single agent: some modest effects
DU145 xenografts; up to 75 mg/kg
  observable effect on the animal: no observable effect on the animal
